Measurements from patent publication US7135475B2, “Amide substituted xanthine derivatives” (Hoffmann-La Roche Inc., priority 2002, dated 2006).

Molecular target: T1, recombinant human cytosolic PEPCK (Homo sapiens, UniProt P35558)
T1 sequence (P35558 1-622): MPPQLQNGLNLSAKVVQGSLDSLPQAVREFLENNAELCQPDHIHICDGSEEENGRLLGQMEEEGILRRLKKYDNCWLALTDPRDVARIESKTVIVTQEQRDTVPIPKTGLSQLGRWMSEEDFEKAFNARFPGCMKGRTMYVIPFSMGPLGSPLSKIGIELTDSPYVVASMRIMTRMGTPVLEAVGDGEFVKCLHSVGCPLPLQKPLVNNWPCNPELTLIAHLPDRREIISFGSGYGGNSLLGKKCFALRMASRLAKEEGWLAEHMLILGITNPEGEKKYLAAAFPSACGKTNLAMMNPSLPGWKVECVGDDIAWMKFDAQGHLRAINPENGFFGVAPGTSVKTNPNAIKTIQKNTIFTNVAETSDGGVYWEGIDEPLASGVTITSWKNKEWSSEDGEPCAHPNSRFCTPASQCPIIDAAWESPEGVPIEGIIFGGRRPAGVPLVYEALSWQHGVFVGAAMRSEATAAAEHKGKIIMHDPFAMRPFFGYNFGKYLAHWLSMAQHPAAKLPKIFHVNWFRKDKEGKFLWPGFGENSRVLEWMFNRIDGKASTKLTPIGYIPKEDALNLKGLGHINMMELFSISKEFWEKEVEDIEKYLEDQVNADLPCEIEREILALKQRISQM
Assay: PEPCK enzyme assay (coupled pyruvate kinase/lactate dehydrogenase, absorbance at 340)
Assay type: biochemical
Details: recombinant human cytosolic GST-PEPCK; GTP and OAA at 3 fold and 10 fold Km; final DMSO 10%; room temperature, twenty minutes; read-out: In vitro IC50
Protocol: E. coli cells expressing GST-PEPCK were suspended in 5 volumes of lysis buffer (50 mM Tris-hydroxymethyl aminomethyl (TRIS), 150 mM sodium chloride (NaCl), 10 mM ethylene-diametetraacetic acid (EDTA), 5 mM dithiothreitol(DTT), 1% Nonidet P-40, pH 7.4) in the presence of protease inhibitors, incubated with lysozyme at 200 micrograms/ml for 30 min. at room temperature, and sonicated 4×30 seconds at 4 degrees C. After centrifugation at 12,000×g for 20 min. to remove insoluble material, the supernatant was loaded onto glutathione Sepharose (Pharmacia), washed with lysis buffer followed by washing with lysis buffer in the absence of NP-40. GST-PEPCK was eluted with the same buffer containing 20 mM glutathione. The eluted protein was concentrated and dialyzed against 25 mM Hepes(N-[2-hydroxyethyl]piperazine-N′[2-ethanesulfonic acid), 150 mM NaCl, 2.5 mM EDTA, 5 mM DTT, 30% glycerol, pH 7.4, and stored at −20 ° C.
The inhibitory effect of the compounds of the present invention on PEPCK enzymatic activity was determined using recombinant human cytosolic PEPCK, expressed and purified from E.coli as a GST-fusion. Guanosine triphosphate (GTP) and manganese dependent PEPCK enzyme activity catalyzed the decarboxylation of oxalacetate leading to the formation of guanosine diphosphate (GDP) and phosphoenol pyruvate (PEP). This reaction is coupled to pyruvate kinase and lactate dehydrogenase catalyzed reactions and the overall reaction rate determined by measuring the change in absorbance at 340 nm (Chang, H. C. and Lane M. D., J. Biol.Chem. 241:2413–2420, 1966). The following modifications were made to the protocol: 2.5 μg of recombinant, human cytosolic glutathione-S-transferase (GST)-PEPCK was added to a reaction mixture at room temperature which contained 0.3 mM GTP, 0.3 mM oxaloacetate (OAA), 3 mM magnesium chloride (MgCl2), 0.075 mM manganese chloride (MnCl2), 30 mM potassium phosphates (KPO4), pH 7.6, 1 mM dithiothreitol (DTT), 0.2 mM adenosine diphosphate (ADP), 1 mM nicotinamide adenine dinucleotide, reduced form (NADH), 0.9 Units/ml each of pyruvate kinase and lactate dehydrogenase and 1 mg/ml bovine serum albumin (BSA). Test compounds were added such that final concentration of DMSO was 10%. Reactions were run for twenty minutes.
Km values for GTP and OAA were determined according to Michelis-Menton conditions as described in Cornish-Bowden (Fundamentals of Enzyme Kinetics, 1995) in essentially the coupled assay conditions described above. […] Test compounds were added to reactions over a range of concentrations and IC50's were calculated from plots of inhibitor concentration versus enzyme rate. This method of determination of IC50 values is equally applicable to calculations based on PEPCK cellular assay.
The in vitro biological activity of several representative preferred compounds of the present invention in the foregoing PEPCK enzymatic assay is presented in Table 1.

Structure (SMILES)	IC50 [nM]
Cc1nn(C)cc1C(=O)N(C)c1ccc(Cc2nc3c([nH]2)c(=O)n(Cc2ccccc2F)c(=O)n3CC2CC2)cc1 [Example 107, 1,3-Dimethyl-1H-pyrazole-4-carboxylic acid {4-[3-cyclopropylmethyl-1-(2-fluorobenzyl)-2,6-dioxo-2,3,6,7-tetrahydro-1H-purin-8-ylmethyl]-phenyl}-methyl-amide]	500
CN(C(=O)c1csnn1)c1ccc(Cc2nc3c([nH]2)c(=O)n(Cc2ccccc2F)c(=O)n3CC2CC2)cc1 [Example 111, [1,2,3]Thiadiazole-4-carboxylic acid {4-[3-cyclopropylmethyl-1-(2-fluorobenzyl)-2,6-dioxo-2,3,6,7-tetrahydro-1H-purin-8-ylmethyl]-phenyl}-methyl-amide]	660
CN(C(=O)c1cnn(C)c1)c1ccc(Cc2nc3c([nH]2)c(=O)n(Cc2ccccc2F)c(=O)n3CC2CC2)cc1 [Example 112, 1-Methyl-1H-pyrazole-4-carboxylic acid {4-[3-cyclopropylmethyl-1-(2-fluorobenzyl)-2,6-dioxo-2,3,6,7-tetrahydro-1H-purin-8-ylmethyl]-phenyl}-methyl-amide]	690
CC(=O)Nc1csc(C)c1C(=O)N(C)c1ccc(Cc2nc3c([nH]2)c(=O)n(Cc2ccccc2F)c(=O)n3CC2CC2)cc1 [Example 113, 4-Acetylamino-2-methyl-thiophene-3-carboxylic acid {4-[3-cyclopropylmethyl-1-(2-fluorobenzyl)-2,6-dioxo-2,3,6,7-tetrahydro-1H-purin-8-ylmethyl]-phenyl}-methyl-amide]	740
Cc1oncc1C(=O)N(C)c1ccc(Cc2nc3c([nH]2)c(=O)n(Cc2ccccc2F)c(=O)n3CC2CC2)cc1 [Example 114, 5-Methyl-isoxazole-4-carboxylic acid {4-[3-cyclopropylmethyl-1-(2-fluorobenzyl)-2,6-dioxo-2,3,6,7-tetrahydro-1H-purin-8-ylmethyl]-phenyl}-methyl-amide]	740
CN(C(=O)c1sccc1C(N)=O)c1ccc(Cc2nc3c([nH]2)c(=O)n(Cc2ccccc2F)c(=O)n3CC2CC2)cc1 [Example 115, Thiophene-2,3-dicarboxylic acid 3-amide 2-({4-[3-cyclopropylmethyl-1-(2-fluorobenzyl)-2,6-dioxo-2,3,6,7-tetrahydro-1H-purin-8-ylmethyl]-phenyl}-methyl-amide)]	930
CCN(C(=O)c1c(C)nn(C)c1C)c1ccc(Cc2nc3c([nH]2)c(=O)n(Cc2ccccc2F)c(=O)n3CC2CC2)cc1 [Example 117, 1,3,5-Trimethyl-1H-pyrazole-4-carboxylic acid {4-[3-cyclopropylmethyl-1-(2-fluorobenzyl)-2,6-dioxo-2,3,6,7-tetrahydro-1H-purin-8-ylmethyl]-phenyl}-ethyl-amide]	190
CCCCN(C(=O)c1ccc(C)nc1)c1ccc(Cc2nc3c([nH]2)c(=O)n(Cc2ccccc2F)c(=O)n3CCCC)cc1 [Example 118, N-Butyl-N-{4-[3-butyl-1-(2-fluorobenzyl)-2,6-dioxo-2,3,6,7-tetrahydro-1H-purin-8-ylmethyl]-phenyl}-6-methyl-nicotinamide]	560
Cc1ccc(C(=O)N(c2ccc(Cc3nc4c([nH]3)c(=O)n(Cc3ccccc3F)c(=O)n4CC3CC3)cc2)C(C)C)cn1 [Example 119, N-{4-[3-Cyclopropylmethyl-1-(2-fluorobenzyl)-2,6-dioxo-2,3,6,7-tetrahydro-1H-purin-8-ylmethyl]-phenyl}-N-isopropyl-6-methyl-nicotinamide]	310
CC(C)N(C(=O)Cc1cccnc1)c1ccc(Cc2nc3c([nH]2)c(=O)n(Cc2ccccc2F)c(=O)n3CC2CC2)cc1 [Example 120, N-{4-[3-Cyclopropylmethyl-1-(2-fluorobenzyl)-2,6-dioxo-2,3,6,7-tetrahydro-1H-purin-8-ylmethyl]-phenyl}-N-isopropyl-2-pyridin-3-yl-acetamide]	400
Cc1ccc(C(=O)N(CC2CCC2)c2ccc(Cc3nc4c([nH]3)c(=O)n(Cc3ccccc3F)c(=O)n4CC3CCC3)cc2)cn1 [Example 121, N-Cyclobutylmethyl-N-{4-[3-cyclobutylmethyl-1-(2-fluorobenzyl)-2,6-dioxo-2,3,6,7-tetrahydro-1H-purin-8-ylmethyl]-phenyl}-6-methyl-nicotinamide]	390

Other lines, results leading:

IC50 [nM]	Structure (SMILES)
280	Cc1nn(C)c(Cl)c1C(=O)N(C)c1ccc(Cc2nc3c([nH]2)c(=O)n(Cc2ccccc2F)c(=O)n3CC2CC2)cc1 [Example 104, 3-Chloro-1,5-dimethyl-1H-pyrazole-4-carboxylic acid {4-[3-cyclopropylmethyl-1-(2-fluorobenzyl)-2,6-dioxo-2,3,6,7-tetrahydro-1H-purin-8-ylmethyl]-phenyl}-methyl-amide]
320	Cc1nc(C)c(C(=O)N(C)c2ccc(Cc3nc4c([nH]3)c(=O)n(Cc3ccccc3F)c(=O)n4CC3CC3)cc2)s1 [Example 105, 2,4-Dimethyl-thiazole-5-carboxylic acid {4-[3-cyclopropylmethyl-1-(2-fluorobenzyl)-2,6-dioxo-2,3,6,7-tetrahydro-1H-purin-8-ylmethyl]-phenyl}-methyl-amide]
370	Cc1nc(N)sc1C(=O)N(C)c1ccc(Cc2nc3c([nH]2)c(=O)n(Cc2ccccc2F)c(=O)n3CC2CC2)cc1 [Example 106, 2-Amino-4-methyl-thiazole-5-carboxylic acid {4-[3-cyclopropylmethyl-1-(2-fluorobenzyl)-2,6-dioxo-2,3,6,7-tetrahydro-1H-purin-8-ylmethyl]-phenyl}-methyl-amide]
550	Cc1nnsc1C(=O)N(C)c1ccc(Cc2nc3c([nH]2)c(=O)n(Cc2ccccc2F)c(=O)n3CC2CC2)cc1 [Example 108, 4-Methyl-[1,2,3]thiadiazole-5-carboxylic acid {4-[3-cyclopropylmethyl-1-(2-fluorobenzyl)-2,6-dioxo-2,3,6,7-tetrahydro-1H-purin-8-ylmethyl]-phenyl}-methyl-amide]
570	Cc1nocc1C(=O)N(C)c1ccc(Cc2nc3c([nH]2)c(=O)n(Cc2ccccc2F)c(=O)n3CC2CC2)cc1 [Example 109, 3-Methyl-isoxazole-4-carboxylic acid {4-[3-cyclopropylmethyl-1-(2-fluorobenzyl)-2,6-dioxo-2,3,6,7-tetrahydro-1H-purin-8-ylmethyl]-phenyl}-methyl-amide]
660	Cc1noc(C)c1C(=O)N(C)c1ccc(Cc2nc3c([nH]2)c(=O)n(Cc2ccccc2F)c(=O)n3CC2CC2)cc1 [Example 110, 3,5-Dimethyl-isoxazole-4-carboxylic acid {4-[3-cyclopropylmethyl-1-(2-fluorobenzyl)-2,6-dioxo-2,3,6,7-tetrahydro-1H-purin-8-ylmethyl]-phenyl}-methyl-amide]

Test system: not given
Assay: not given
Details: not given

Structure (SMILES)	melting point [°C]
CCCCn1c(=O)n(Cc2ccccc2)c(=O)c2[nH]c(Cc3ccc(N4C(=O)CCC4=O)cc3)nc21 [Example 65, 1-Benzyl-3-butyl-8-[4-(2,5-dioxo-pyrrolidin-1-yl)-benzyl]-3,7-dihydro-purine-2,6-dione]	208 to 212
